# Assay results reported in patent US9475328B2, “Developer for thermally responsive record materials” (Valspar Sourcing, Inc., priority 2012, dated 2016).
# Target: T1, human estrogen receptor (Homo sapiens, UniProt P03372)
# T1 sequence (P03372 1-595): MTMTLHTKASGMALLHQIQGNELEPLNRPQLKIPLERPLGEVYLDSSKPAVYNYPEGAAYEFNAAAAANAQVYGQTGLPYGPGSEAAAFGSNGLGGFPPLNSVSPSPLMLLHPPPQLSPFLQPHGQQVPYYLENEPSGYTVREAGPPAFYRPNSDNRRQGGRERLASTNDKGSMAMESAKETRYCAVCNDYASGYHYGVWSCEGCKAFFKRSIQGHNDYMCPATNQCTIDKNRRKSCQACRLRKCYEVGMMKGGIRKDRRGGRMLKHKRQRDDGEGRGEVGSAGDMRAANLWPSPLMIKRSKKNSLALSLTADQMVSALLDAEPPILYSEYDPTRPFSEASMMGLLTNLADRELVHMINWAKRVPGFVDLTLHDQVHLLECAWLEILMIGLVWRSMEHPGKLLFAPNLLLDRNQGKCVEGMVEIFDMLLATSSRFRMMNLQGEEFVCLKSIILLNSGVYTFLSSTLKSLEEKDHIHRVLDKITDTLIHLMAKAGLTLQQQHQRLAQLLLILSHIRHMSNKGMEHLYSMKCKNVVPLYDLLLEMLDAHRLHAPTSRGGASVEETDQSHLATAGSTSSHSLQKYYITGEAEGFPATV
# Test: suitable in vitro assay whose results correlate with the MCF-7 assay (estrogenic activity)
# Type: cell-based
# Details: in vitro assay correlated to MCF-7 assay through common reference compounds
row,SMILES,estrogenic activity
1,"Cc1cc(Cc2cc(C)c(O)c(C)c2)cc(C)c1O [Structure 6, 4,4′-methylenebis(2,6-dimethylphenol)]",do not exhibit appreciable estrogenic activity
2,"CCCC(c1cc(C(C)(C)C)c(O)cc1C)c1cc(C(C)(C)C)c(O)cc1C [Structure 7, 4,4′-butylidenebis(2-t-butyl-5-methylphenol)]",do not exhibit appreciable estrogenic activity
3,"CC(C)(C)c1cc(Cc2cc(C(C)(C)C)c(O)c(C(C)(C)C)c2)cc(C(C)(C)C)c1O [Structure 8, 4,4′-methylenebis(2,6-di-t-butylphenol)]",do not exhibit appreciable estrogenic activity
4,Cc1cc(Cc2cc(C)cc(C(C)(C)C)c2O)c(O)c(C(C)(C)C)c1 [Structure 9],do not exhibit appreciable estrogenic activity
5,"CC(C)(C)c1cc(O)c(C(C)(C)C)cc1O [Structure 12, 2,5-di-t-butylhydroquinone]",do not exhibit appreciable estrogenic activity

# Tested on: MCF-7, clone WS8 cells
# Test: MCF-7 cell proliferation assay of estrogenic activity
# Type: cell-based, human
# Details: logarithmic (base 10) Relative Proliferative Effect vs 17-beta estradiol; cell proliferation measured as total DNA; values 'expected or measured'
# Description: The MCF-7 assay is a useful test for assessing whether a polyhydric phenol compound is appreciably non-estrogenic. The MCF-7 assay uses MCF-7, clone WS8 cells to measure whether and to what extent a substance induces cell proliferation via estrogen receptor (ER)-mediated pathways. The method is described in “Test Method Nomination: MCF-7 Cell Proliferation Assay of Estrogenic Activity” submitted for validation by CertiChem, Inc. to the National Toxicology Program Interagency Center for the Evaluation of Alternative Toxicological Methods (NICEATM) on Jan. 19, 2006 (available online at http://iccvam.niehs.nih.gov/methods/endocrine/endodocs/SubmDoc.pdf).
# A brief summary of the method of the aforementioned MCF-7 assay is provided below. MCF-7, clone WS8 cells are maintained at 37° C. in RMPI (Roswell Park Memorial Institute medium) containing Phenol Red (e.g., GIBCO Catalog Number 11875119) and supplemented with the indicated additives for routine culture. […] At the end of the 7 day exposure to the test chemical, the media is removed, the wells are washed once with 0.2 ml of HBSS (Hanks' Balanced Salt Solution), and then assayed to quantify amounts of DNA per well using a micro-plate modification of the Burton diphenylamine (DPA) assay, which is used to calculate the level of cell proliferation. […]
row,SMILES,Log RPE
1,C[C@]12CC[C@@H]3c4ccc(O)cc4CC[C@H]3[C@@H]1CC[C@@H]2O [17β-estradiol],2.00
2,Oc1ccc(Cc2ccc(O)cc2)cc1 [Bisphenol F],−2
